Source: patent publication US20050234113A1, “Antioxidant and radical scavenging activity of synthetic analogs of desferrithiocin” (University of Florida Research Foundation, Inc., priority 2002, published 2005)
“Also recorded” adds a separate entry of the source. Marks after values point to notes of the source that are not given here.

What was measured:
[1] = Quenching of the ABTS radical cation
Experimental: The iron chelators were tested for their ability to quench the radical cation formed from 2,2′-azinobis(3-ethylbenzothiazoline-6-sulfonic acid) (ABTS) by the method of Re et al. in Free Radic. Biol. Med. 26, 1231-1237 (1999). Briefly, a stock solution of ABTS radical cation was generated by mixing ABTS (10 mM, 2.10 mL) with K2S2O8 (8.17 mM, 0.90 mL) in H2O and […] deep blue-green ABTS radical cation was diluted in sufficient sodium phosphate (10 mM, pH 7.4) to give an A734 of about 0.900. Test compounds were added to a final concentration ranging from 1.25 to 15 μM, and the decrease in A734 was read after 1, 2, 4 and 6 min. The reaction was largely complete by 1 min, but the data presented are based on a 6-min reaction time.
In this assay, a fairly stable radical cation, ABTS^+, was examined, and Trolox, an analog of vitamin E, was used as a positive control. Briefly, the procedure involved generating the blue-green chromophore by the reaction of ABTS with K2S2O8. The radical has absorption maxima at λ=415, 645, 734, and 815 nm. The change in absorbance at 734 nm was noted 6 min after addition of the chelator of interest at various concentrations, and the slope of the ΔA734 vs. ligand concentration line was calculated.
The iron chelators were tested for their ability to quench the radical cation formed from 2,2′-azinobis(3-ethylbenzothiazoline-6-sulfonic acid) (ABTS) by a published method (Re, R., et al., Free Radical Biol. Med. 26:1231-1237 (1999). Briefly, a stock solution of ABTS radical cation was generated by mixing ABTS (10 mM, 2.10 mL) with K2S2O8 (8.17 mM, 0.90 mL) in H2O and allowing the solution to sit in the dark at room temperature for 18 hours. This stock solution of deep blue-green ABTS radical cation was diluted in sufficient sodium phosphate (10 mM, pH 7.4) to give an A734 of about 0.900. Test compounds were added to a final concentration ranging from 1.25 to 15 μM, and the decrease in A734 was read after 1, 2, 4 and 6 min. The reaction was largely complete by 1 min, but the data presented are based on a 6-min. reaction time.
This radical cation decolorization assay utilizes the pre-formed radical monocation of 2,2′-azinobis(3-ethylbenzothiazoline-6-sulfonic acid) (ABTS) and has been used to evaluate the antioxidant capacity of a large number of compounds and mixtures. Briefly, the change in absorbance of the blue-green chromophore was recorded after the addition of the chelator of interest at each of the different concentrations, and the slope of the ΔA734 vs. ligand concentration line was calculated. The positive control for this reaction was Trolox, an analogue of vitamin E. The decrease in A734 as a function of ligand concentration is the comparitor among the five compounds evaluated. Trolox, L1, DFO, (S)-4′-(HO)-DADMDFT and BDU (Table 3). All four of the iron chelators performed better than Trolox; DFO≈BDU>(S)-4′-(HO)-DADMDFT>L1>Trolox. Thus, all of these ligands could be expected to serve as excellent radical scavengers.

[2] = tested on: acetic acid-induced colitis; assay: Acetic acid-induced colitis in rats, densitometric image analysis of colonic damage; format: in vivo
Experimental: (§1) The ligands were administered to the rats intracolonically as a suspension or solution in distilled water (2 mL) at a dose of 650 μmol kg^−1. The drug solutions were made fresh for each experiment. ROWASA®, the pharmaceutical preparation which contains 5-ASA (2 mL, 66.7 mg mL^−1) was given at a dose of 2318 μmol kg^−1. Control rats received distilled water (2 mL), administered intracolonically.
(§2) Animal care and experimental procedures were approved by the Institutional Animal Care and Use Committee. Colitis was induced by a modification of published methods. Briefly, the rats were anesthetized with sodium pentobarbital, 55 mg kg^−1 intraperitoneally. The abdomen was shaved and prepared for surgery. A midline incision was made, and the cecum and proximal colon were exteriorized. A reversible suture was placed at the junction of the cecum and proximal colon. The colon was rinsed with saline (10 mL), and the fluid and intestinal contents were gently expressed out the rectum. A gum-based rectal plug was inserted. The compound of interest, or distilled water in the control animals (2 mL), was injected intracolonically just distal to the ligature. The cecum and proximal colon were returned to the abdominal cavity; the compound was allowed to remain in the gut for 30 min. Then, the cecum and proximal colon were reexteriorized. The rectal plug was removed, and the drug was gently expressed out of the colon. Acetic acid (4%, 2 mL) was injected into the proximal colon over a 15-20-second time period. The acid was allowed to remain in the gut until one minute had passed (i.e., 40-45 seconds after the end of the acid administration). The no acid control rats received distilled water (2 mL), which was administered in the same manner as was the acetic acid. Air (10 mL) was then injected into the proximal colon to expel the acid or water. The cecal/proximal colon ligature was removed, the gut was returned to the abdominal cavity, and the incisions were closed. The animals were allowed to recover overnight and were sacrificed 24 hr later. The entire length of the colon was removed and assessed for damage both densitometrically and biochemically.
Gross damage was quantitated using Photoshop-based image analysis (version 5.0, Adobe Systems, Mountain View, Calif., USA) on an Apple iMac computer. The Magic Wand tool in the Select menu of Photoshop was used to place the cursor on an area of obvious damage. The tolerance level of the Magic Wand tool was set at 30. The damaged areas were automatically selected by using the Similar command in the Select menu. Then, the Eyedropper tool was used to determine the range of the damage in the highlighted areas. Individual colon images were copied to a blank Photoshop page. The Magic Wand tool, with a tolerance set to 100, was used to select all of the pixels in the colon sample. Then, the Histogram tool, which generates a graph in which each vertical line represents the number of pixels associated with a brightness level, was selected in the Image menu. The Red channel was then selected; the darker (damaged areas) appear on the left side of the histogram and the lighter (normal) areas are on the right side. The cursor was then placed on the histogram, the color range determined in an earlier step was selected, and the number of pixels encompassing that range and the percent damage were quantified automatically.
Two means were employed to assess the damage to the colon in the presence and absence of ligand, computer-based image analysis and colonic MPO measurement. The densitometric method removes much of the subjectivity involved in the simple scoring approaches. A digital image of the prepared colonic tissue is taken, and a clearly damaged segment is highlighted on the screen. Once the computer identifies all other segments of the intestine with the same or greater damage, a pixel number is generated; this number makes it possible to calculate the percentage of damaged intestine.

[3] = tested on: Myeloperoxidase (MPO) activity in colonic tissue; assay: Myeloperoxidase (MPO) assay in colonic tissue of rats with acetic acid-induced colitis; format: in vivo; conditions: 650 μmol kg^−1 intracolonically 30 min before 4% acetic acid, mean ± standard deviation
Experimental: as §1, §2
The activity of MPO was measured in colonic tissue by a modification of the method of Krawisz et al. in Gastroenterology 87, 1344-1350 (1984). Each excised colon was homogenized in 9 volumes of homogenization buffer (0.5% hexadecyltrimethylammonium bromide (HDTMA) in 50 mM sodium acetate, pH 6.0); this homogenate was centrifuged at 1200 g for 20 min at 4° C. A sample of the supernatant (1.8 mL) was transferred into a microcentrifuge tube and stored frozen at −20° C. for up to one week. Prior to assay, the thawed aliquot was centrifuged at about 10,000 g for 15 minutes at 4° C. The final supernatant (33 μL) was added to a solution of o-dianisidine HCl (0.17 mg mL^−1 in 50 mM sodium acetate, pH 6.0, made fresh daily and filtered immediately before use) (950 μL), the mixture was vortexed, and the peroxidase reaction was initiated by the addition of H2O2 to 50 mM sodium acetate, pH 6.0, made fresh daily (16.7 μL). The A470 at room temperature (ca. 23° C.) was read at 15-second intervals for 2 min. The rates were assessed graphically and are presented as change in milliabsorbance units (ΔmAU)/min per g tissue. Under these conditions, 0.1 “Unit” of purified human leukocyte myeloperoxidase (Sigma M-6908) produced a ΔA470 of about 400 mAU/min.
The biochemical measurement involves measuring the level of MPO in a sample of homogenate of the whole rat colon. When the colon is damaged by the acetic acid, there is an extravasation of neutrophils. The extent of this infiltration can serve as a quantitative marker for tissue damage. Although other leukocytes, such as eosinophils and monocytes, also contribute to the inflammatory response, their contribution is small; the majority of the cells recruited during the acute inflammatory response are neutrophils. […]

[4] = Quenching of the ABTS radical cation; conditions: Table 5; 6-min reaction, initial OD 1.000
iron-loaded hepatocytes = conditions: cited from earlier work
[5] = Prevention of iron-mediated oxidation of ascorbate (ascorbate-mediated reduction of Fe(III)); conditions: ascorbate 100 μM, FeCl3 30 μM, pH 7.4, ligand/Fe ratios 0-3, 40 min
Experimental: (§3) The iron chelators were tested for their ability to diminish the iron-mediated oxidation of ascorbate by the method of Dean and Nicholson (Free Radical Res. 20, 83-101 (1994)). Briefly, a solution of freshly prepared ascorbate (100 μM) in sodium phosphate buffer (5 mM, pH 7.4) was incubated in the presence of FeCl3 (30 μM) and chelator (ligand/Fe ratios varied from 0-3) for 40 min. The A265 was read at 10 and 40 min; the ΔA265 in the presence of ligand was compared to that in its absence.
The role of chelators in either inhibition or promotion of the Fenton reaction is related to their capacity to prevent Fe(III) from being reduced to Fe(II). Fe(II) is required for the reduction of H2O2 to HO. and HO^−. The assay involves spectrophotometrically monitoring the disappearance of ascorbate at pH 7.4 in the presence of FeCl3 and chelator at several ligand/Fe ratios. Under these conditions, ascorbate is oxidized to an L-ascorbyl radical anion. This anion then disproportionates to dehydroascorbic acid and ascorbate.
as §3, with “chelators nitrilotriacetic acid (NTA), 1,2-dimethyl-3-hydroxypyridin-4-one (L1), desferrioxamine B (DFO), (S)-4′-(HO)-DADMDFT, and (S,S)-1,11-Bis[5-(4-carboxyl-4,5-dihydro-1,3-thiazol-2-yl)-2,4-dihydroxyphenyl]-4,8-dioxaundecane (BDU)” for “chelators”, “Nicholson, Free” for “Nicholson (Free”, “20:” for “20,”, “(1994).” for “(1994)).”
The measurement examines the disappearance of ascorbate. It is known that DFO, a hydroxamate chelator that forms a 1:1 complex with Fe(III) at a formation constant of approximately 10^31 M^−1, prevents ascorbate-mediated reduction of Fe(III); it serves as a positive control in the present study. Both NTA and L1 promote ascorbate-mediated reduction of Fe(III) and serve as negative controls.

[6] = Table 1, A734, six-minute reaction, pH 7.4, 1.25 to 15 μM

SMILES	Slope × 10^3 OD units/μM (ABTS radical cation quenching) [1, 6]	Damage (%) ([2]; 650 μmol kg^−1 intracolonically 30 min before 4% acetic acid, mean ± standard deviation)	protection against acetic acid-induced colonic damage (in words) ([2]; intracolonic, image analysis and MPO assay)	MPO activity [3]	Slope × 10^3 OD units/μM (ABTS radical cation quenching) [4]	Slope × 10^3 OD units/μM (ABTS radical cation quenching) ([1]; Table 3, A734, 6-min reaction, values marked b are the inventors' unpublished results)	effect on iron-mediated oxidative DNA damage (in words) (iron-loaded hepatocytes)	effect on ascorbate-mediated reduction of Fe(III) (in words) [5]	effect on ascorbate-mediated reduction of Fe(III) (in words) ([5]; listed as 1,2-dimethyl-3-hydroxypyridin-4-one)
C[C@]1(C(=O)O)CSC(c2ccc(O)cc2O)=N1 [4′-(HO)-DADFT]	−105.6 × 10^3 OD units/μM	62 ± 10%	did not protect	64192 ± 30802 mAU min^−1g of colonic tissue^−1	−106 × 10^3 OD units/μM	–	–	–	–
Cc1c(O)c(=O)ccn1C [Compound L1, 1,2-Dimethyl-3-hydroxypyridin-4-one, reference compound]	−52.9 × 10^3 OD units/μM	–	–	–	–	−53^b × 10^3 OD units/μM	potentiated iron-mediated oxidative DNA damage	promoted the reaction; also recorded: promoted ascorbate-mediated reduction of Fe(III)	increased the rate of iron(III) reduction
C[C@]1(C(=O)O)CSC(c2ncccc2O)=N1 [DFT, desferrithiocin]	−0.9 × 10^3 OD units/μM	–	–	–	–	–	prevented damage	–	–
